The source made the active and inactive calls. No cut-off for these calls is given here.
Columns and labels:
Plasmodium berghei [1] = experiment: In vivo antimalarial activity against Plasmodium berghei ANKA strain infected in C57BL/6 mouse assessed as increase in mean survival time at 30 mg/kg, ip administered for 4 days and measured upto 30 days (reference value: 13 days); assay type: functional; conditions: time <= 30 day
Plasmodium falciparum [2] = experiment: Antiplasmodial activity against artemisinin partially resistant Plasmodium falciparum harbouring C580Y mutant assessed as inhibition of parasitemia; assay type: functional, organism-based, Red blood cell; conditions: Erythrocyte
[3] = Toxicity in C57BL/6 mouse assessed as effect on serum LDH level at 400 mg/kg, ip measured upto 24 hrs; assay type: organism-based; conditions: in vivo
[4] = Cytotoxicity against human HepG2 cells assessed as reduction in cell viability incubated for 48 hrs by MTT assay; assay type: toxicity, cell-based; conditions: read-out: TC50
Plasmodium berghei [5] = experiment: In vivo antimalarial activity against GFP-expressing Plasmodium berghei infected in C57BL/6 mouse assessed as inhibition of parasite growth in thin blood smear at 50 mg/kg, ip administered for 4 days and measured upto 8 days post-infection by giemsa staining based microscopic analysis; assay type: functional, organism-based; conditions: time <= 8.0 day
Plasmodium berghei [6] = experiment: In vivo antimalarial activity against Plasmodium berghei ANKA strain infected in C57BL/6 mouse assessed as increase in mean survival time at 50 mg/kg, ip administered for 4 days and measured upto 30 days (reference value: 13 days); assay type: functional; conditions: time <= 30 day
Plasmodium falciparum [7] = experiment: Antiplasmodial activity against Plasmodium falciparum 3D7 infected in human red blood cells assessed as inhibition of parasitemia incubated for 48 hrs by giemsa staining based light microscopic analysis; assay type: functional, organism-based, Red blood cell; conditions: 3D7, Erythrocyte
Plasmodium berghei [8] = experiment: In vivo antimalarial activity against Plasmodium berghei ANKA infected in C57BL/6 mouse assessed as reduction in parasitemia at 50 mg/kg, ip administered for 4 consecutive days and measured on day 8 post-infection by giemsa staining based microscopic analysis relative to control; assay type: functional; parameters: scale not given: the % may be the effect or the level left; conditions: time 8 day
[9] = Toxicity in C57BL/6 mouse assessed as effect on total protein level at 400 mg/kg, ip measured upto 24 hrs (reference value: 6.29 gm/dl); assay type: organism-based; conditions: in vivo
[10] = Toxicity in C57BL/6 mouse assessed as effect on serum calcium level at 400 mg/kg, ip measured upto 24 hrs (reference value: 8.89 mg/dl); assay type: organism-based; conditions: in vivo
[11] = Toxicity in C57BL/6 mouse assessed as effect on indirect bilirubin level at 400 mg/kg, ip measured upto 24 hrs (reference value: 0.22 mg/dl); assay type: organism-based; conditions: in vivo
[12] = Toxicity in C57BL/6 mouse assessed as effect on feeding at 100 to 400 mg/kg, ip measured upto 24 hrs; assay type: organism-based; conditions: in vivo, dose 100-400 mg/kg
Plasmodium berghei [13] = experiment: Antiplasmodial activity against Plasmodium berghei isolated from parasite-infected mouse blood assessed as reduction in number of healthy parasites in compound treated ookinete medium co-cultured with mouse blood at 0.05 to 0.45 uM by giemsa staining based analysis; assay type: functional, organism-based; conditions: dose 0.05-0.45 µM
Plasmodium berghei [14] = experiment: In vivo antimalarial activity against Plasmodium berghei ANKA strain infected in C57BL/6 mouse assessed as increase in mean survival time at 50 mg/kg, ip administered for 4 days and measured upto 30 days in the presence of artesunate (reference value: 13 days); assay type: functional; conditions: time <= 30 day
[15] = Toxicity in C57BL/6 mouse assessed as effect on albumin level at 400 mg/kg, ip measured upto 24 hrs (reference value: 2.10 gm/dl); assay type: organism-based; conditions: in vivo
[16] = Therapeutic index, ratio of TC50 for cytotoxicity against human HepG2 cells to IC50 for antiplasmodial activity against Plasmodium falciparum 3D7 infected in human red blood cells; assay type: toxicity, cell-based; conditions: read-out: TI
[17] = Toxicity in C57BL/6 mouse assessed as effect on alkaline phosphatase level in serum at 400 mg/kg, ip measured upto 24 hrs (reference value: 108.3 U/L); assay type: organism-based; conditions: in vivo
Plasmodium berghei [18] = experiment: Antiplasmodial activity against firefly luciferase-expressing Plasmodium berghei liver stage infected in human Huh-7 cells assessed as inhibition of parasite growth preincubated with cells for 1 hrs followed by parasite infection and […] by bioluminescence assay; assay type: functional, organism-based
[19] = Toxicity in C57BL/6 mouse assessed as effect on SGOT level in serum at 400 mg/kg, ip measured upto 24 hrs (reference value: 147.2 U/L); assay type: organism-based; conditions: in vivo
Plasmodium berghei [20] = experiment: Antimalarial activity against Plasmodium berghei assessed as reduction in Plasmodium berghei oocyte formation in Anopheles stephensi mosquito midgut fed with blood isolated from compound treated parasite-infected Balb/c mouse at 200 mg/kg administered on day 1 and day 9; assay type: functional, organism-based; conditions: time 9.0 day
[21] = Toxicity in C57BL/6 mouse assessed as effect on serum creatinine level at 400 mg/kg, ip measured upto 24 hrs (reference value: 0.47 mg/dl); assay type: organism-based; conditions: in vivo
[22] = Toxicity in C57BL/6 mouse assessed as effect on total bilirubin level at 400 mg/kg, ip measured upto 24 hrs (reference value: 0.39 mg/dl); assay type: organism-based; conditions: in vivo
Plasmodium berghei [23] = experiment: Antimalarial activity against Plasmodium berghei infected in Balb/c mouse assessed as parasite killing at 200 mg/kg administered on day 1 and day 9 relative to control; assay type: functional; conditions: time 9 day
[24] = Toxicity in C57BL/6 mouse assessed as effect on globulin level at 400 mg/kg, ip measured upto 24 hrs (reference value: 4.19 gm/dl); assay type: organism-based; conditions: in vivo
Plasmodium falciparum [25] = experiment: Resistance index, ratio of IC50 for antiplasmodial activity against artemisinin partially resistant Plasmodium falciparum harbouring C580Y mutant to IC50 for antiplasmodial activity against Plasmodium falciparum 3D7; assay type: functional
[26] = Toxicity in C57BL/6 mouse assessed as effect on liver structure at 400 mg/kg, ip measured upto 24 hrs by H&E staining based histopathological analysis; assay type: organism-based; conditions: in vivo
Erythrocyte = experiment: Hemolytic activity against human red blood cells upto 1600 uM incubated for 1 hrs by hemolysis assay; assay type: toxicity, cell-based
[27] = Toxicity in C57BL/6 mouse assessed as effect on SGPT level in serum at 400 mg/kg, ip measured upto 24 hrs (reference value: 37.59 U/L); assay type: organism-based; conditions: in vivo
[28] = Toxicity in C57BL/6 mouse assessed as effect on direct bilirubin level at 400 mg/kg, ip measured upto 24 hrs (reference value: 0.17 mg/dl); assay type: organism-based; conditions: in vivo
Plasmodium berghei [29] = experiment: In vivo antimalarial activity against Plasmodium berghei ANKA infected in C57BL/6 mouse assessed as reduction in parasitemia at 50 mg/kg, ip administered for 4 days and measured at day 8 post-infection in the presence of artesunate by giemsa staining based microscopic analysis relative to control; assay type: functional; parameters: scale not given: the % may be the effect or the level left; conditions: time 8 day
[30] = Toxicity in C57BL/6 mouse assessed as effect on motor activity at 100 to 400 mg/kg, ip measured upto 24 hrs; assay type: organism-based; conditions: in vivo, dose 100-400 mg/kg
Plasmodium falciparum [31] = experiment: Inhibition of Plasmodium falciparum plasmepsin X […] at 1 uM using DABCYL-G-PSFVEAPVRGG-EDANS as substrate by fluorescence based assay relative to control
[32] = Drug recovery in C57BL/6 mouse plasma at 0.1 mg/ml; assay type: ADME, cell-free
[33] = Toxicity in C57BL/6 mouse assessed as effect on kidney structure at 400 mg/kg, ip measured upto 24 hrs by H&E staining based histopathological analysis; assay type: organism-based; conditions: in vivo
[34] = Toxicity in C57BL/6 mouse assessed as effect on body weight at 100 to 400 mg/kg, ip measured upto 24 hrs; assay type: organism-based; conditions: in vivo, dose 100-400 mg/kg
Plasmodium berghei [35] = experiment: In vivo antimalarial activity against GFP-expressing Plasmodium berghei infected in C57BL/6 mouse assessed as inhibition of parasite growth in thick blood smear at 50 mg/kg, ip administered for 4 days and measured upto 8 days post-infection by microscopic analysis; assay type: functional, organism-based; conditions: time <= 8.0 day
[36] = Toxicity in C57BL/6 mouse assessed as effect on urea level at 400 mg/kg, ip measured upto 24 hrs (reference value: 44.50 mg/dl); assay type: organism-based; conditions: in vivo
Plasmodium berghei [37] = experiment: Antimalarial activity against Plasmodium berghei assessed as reduction in oocyte burden in Anopheles stephensi mosquito midgut fed with blood isolated from compound treated parasite-infected Balb/c mouse at 200 mg/kg administered on day 1 and day 9 relative to control; assay type: functional; parameters: scale not given: the % may be the effect or the level left; conditions: time 9 day
[38] = Toxicity in C57BL/6 mouse assessed as effect on serum uric acid level at 400 mg/kg, ip measured upto 24 hrs (reference value: 2.58 mg/dl); assay type: organism-based; conditions: in vivo
Plasmodium falciparum [39] = experiment: Resistance index, ratio of IC50 for antiplasmodial activity against chloroquine-resistant Plasmodium falciparum RKL-9 to IC50 for antiplasmodial activity against Plasmodium falciparum 3D7; assay type: functional
Plasmodium berghei [40] = experiment: In vivo antimalarial activity against Plasmodium berghei ANKA strain infected in BALB/c mouse assessed as increase in mean survival time at 50 mg/kg, ip administered for 4 days and measured upto 30 days (reference value: 13 days); assay type: functional; conditions: time <= 30 day
Plasmodium falciparum [41] = experiment: Antiplasmodial activity against Plasmodium falciparum 3D7 infected in human erythrocytes assessed as pyknotic trophozoites development at 1 to 10 uM measured for 56 hrs by giemsa staining based microscopic analysis; assay type: functional, organism-based; conditions: Erythrocyte, dose 1-10 µM
Plasmodium falciparum [42] = experiment: Induction of mitochondrial membrane loss in Plasmodium falciparum 3D7 assessed as reduction in red-green ratio at IC50 concentration incubated for 3 hrs by JC-1 staining based spectrofluorometric analysis; assay type: functional
Plasmodium falciparum [43] = experiment: Antiplasmodial activity against chloroquine resistant Plasmodium falciparum RKL-9 infected in human erythrocytes assessed as inhibition of parasitemia by SYBR green-I fluorescence based spectrofluorometric analysis; assay type: functional, organism-based; conditions: RKL-9, Erythrocyte
Plasmodium falciparum [44] = experiment: Antiplasmodial activity against Plasmodium falciparum 3D7 infected in human erythrocytes assessed as accumulation of parasite growth at late trophozoite stage at 1 to 10 uM measured after 56 hrs post-treatment by giemsa staining based microscopic analysis; assay type: functional, organism-based; conditions: Erythrocyte, dose 1-10 µM
Plasmodium berghei [45] = experiment: In vivo antimalarial activity against Plasmodium berghei ANKA infected in BALB/c mouse assessed as reduction in parasitemia at 50 mg/kg, ip administered for 4 consecutive days and measured on day 8 post-infection by geimsa staining based microscopic analysis relative to control; assay type: functional; parameters: scale not given: the % may be the effect or the level left; conditions: time 8 day
Plasmodium falciparum [46] = experiment: Antiplasmodial activity against Plasmodium falciparum 3D7 infected in human erythrocytes assessed as transition from ring to trophozoite at 1 to 10 uM measured for 56 hrs by giemsa staining based microscopic analysis; assay type: functional, organism-based; conditions: Erythrocyte, dose 1-10 µM
Plasmodium falciparum [47] = experiment: Antiplasmodial activity against Plasmodium falciparum 3D7 infected in human erythrocytes assessed as delay in maturation of rings at 1 to 10 uM measured for 56 hrs by giemsa staining based microscopic analysis; assay type: functional, organism-based; conditions: Erythrocyte, dose 1-10 µM

C[C@H]1[C@H](OC(=O)CCC(=O)O)O[C@@H]2O[C@@]3(C)CC[C@H]4[C@H](C)CC[C@@H]1[C@@]24OO3 [ARTESUNATE]
MST (Plasmodium berghei [1]): 24 days

O=C(N[C@@H](Cc1ccccc1)[C@@H](O)CN1CCN(Cc2ccccc2)CC1)c1ccc2ccccc2c1
IC50 (Plasmodium falciparum [2]): 0.11 µM
Activity [3]: Non-Toxic
CC50 at 48 h [4]: 234 µM
Activity (Plasmodium berghei [5]): Active
MST (Plasmodium berghei [6]): 17 days
IC50 (Plasmodium falciparum [7]): 0.15 µM
Activity (Plasmodium berghei [8]): 75%
Activity [9]: 6.82 g/dL
Activity [10]: 9.24 mg/dL
Activity [11]: 0.17 mg/dL
Activity [12]: Non-Toxic
Activity (Plasmodium berghei [13]): Active
MST (Plasmodium berghei [14]): 27 days
Activity [15]: 2.68 g/dL
selectivity ratio [16]: 1560
Activity [17]: 41.9 U/L
IC50 (Plasmodium berghei [18]): 1.56 µM
Activity [19]: 123.1 U/L
Activity (Plasmodium berghei [20]): Active
Activity [21]: 0.77 mg/dL
Activity [22]: 0.28 mg/dL
Activity (Plasmodium berghei [23]): 100%
Activity [24]: 4.14 g/dL
Ratio IC50 (Plasmodium falciparum [25]): 0.72
Activity [26]: Non-Toxic
Activity (Erythrocyte): Non-Toxic
Activity [27]: 22.45 U/L
Activity [28]: 0.11 mg/dL
Activity (Plasmodium berghei [29]): 99%
Activity [30]: Non-Toxic
inhibition (Plasmodium falciparum [31]): 17.7%
Drug recovery [32]: > 87.3%
Activity [33]: Non-Toxic
Activity [34]: Non-Toxic
Activity (Plasmodium berghei [35]): Active
Activity [36]: 49.03 mg/dL
Activity (Plasmodium berghei [37]): 80%
Activity [38]: 2.49 mg/dL

O=C(N[C@@H](Cc1ccccc1)[C@@H](O)CN1CCN(Cc2ccccc2)CC1)c1ccc(N2CCOCC2)cc1
Ratio IC50 (Plasmodium falciparum [39]): 3.93
CC50 at 48 h [4]: 317 µM
MST (Plasmodium berghei [40]): 15 days
IC50 (Plasmodium falciparum [7]): 0.21 µM
selectivity ratio [16]: 1450
Activity (Plasmodium falciparum [41]): Active
Ratio (Plasmodium falciparum [42]): 3.48
IC50 (Plasmodium falciparum [43]): 0.86 µM
Activity (Erythrocyte): Non-Toxic
Activity (Plasmodium falciparum [44]): Active
inhibition (Plasmodium falciparum [31]): 28.4%
Activity (Plasmodium berghei [45]): 50%
Activity (Plasmodium falciparum [46]): Active
Activity (Plasmodium falciparum [47]): Active
